ChEMBL document CHEMBL3877278, “Antiproliferative activity of amino substituted benzo[b]thieno[2,3-b]pyrido[1,2-a]benzimidazoles explored by 2D and 3D cell culture system” (Eur J Med Chem, 2017)

What was measured:
[1] = Antiproliferative activity against 2D culture of human MDA-MB-231 cells after 72 hrs MTS assay; assay type: functional, cell-based; details: MDA-MB-231, 72 h
[2] = Antiproliferative activity against 3D culture of human MDA-MB-231 cells after 72 hrs MTS assay; assay type: functional, cell-based; details: MDA-MB-231, 72 h
[3] = Lipophilicity, log D of the compound at pH 2.7 by HPLC method; assay type: physicochemical; details: buffer
[4] = Antiproliferative activity against 2D culture of human SK-BR-3 cells after 72 hrs MTS assay; assay type: functional, cell-based; details: SK-BR-3, 72 h
[5] = Antiproliferative activity against 3D culture of human T47D cells after 72 hrs MTS assay; assay type: functional, cell-based
[6] = Lipophilicity, log D of the compound at pH 7.4 by HPLC method; assay type: physicochemical; details: buffer
[7] = Antiproliferative activity against 2D culture of human T47D cells after 72 hrs MTS assay; assay type: functional, cell-based
[8] = Antiproliferative activity against 3D culture of human SK-BR-3 cells after 72 hrs MTS assay; assay type: functional, cell-based; details: SK-BR-3, 72 h

Compound	IC50 [1]	IC50 [2]	logD [3]	IC50 [4]	IC50 [5]	logD ([6]; read-out: logD)	IC50 [7]	IC50 [8]	logD [6]
N#Cc1cc2ccc(F)cc2n2c1nc1ccccc12	30 µM	> 30 µM	5.14	> 30 µM	> 30 µM	5.11	> 30 µM	> 30 µM	–
N#Cc1c(Cl)c2ccccc2n2c1nc1ccccc12	> 30 µM	> 30 µM	5.9	> 30 µM	> 30 µM	5.85	1 µM	> 30 µM	–
CC(C)CNc1ccc2cc(C#N)c3nc4ccccc4n3c2c1	5 µM	> 30 µM	6.45	1 µM	19 µM	6.58	3 µM	> 30 µM	–
CN(C)CCCNc1ccc2cc(C#N)c3nc4ccccc4n3c2c1	3 µM	11 µM	0.44	4 µM	> 30 µM	2.14	12 µM	> 30 µM	–
N#Cc1cc2ccc(N3CCCCC3)cc2n2c1nc1ccccc12	7 µM	> 30 µM	7	3 µM	> 30 µM	7.07	> 30 µM	> 30 µM	–
N#Cc1cc2ccc(N3CCNCC3)cc2n2c1nc1ccccc12	3 µM	5 µM	0.27	2 µM	> 30 µM	2.01	15 µM	> 30 µM	–
CC(C)CNc1c(C#N)c2nc3ccccc3n2c2ccccc12	> 30 µM	> 30 µM	2.77	4 µM	> 30 µM	5.52	> 30 µM	> 30 µM	–
CN(C)CCCNc1c(C#N)c2nc3ccccc3n2c2ccccc12	6 µM	7 µM	-0.05	4 µM	> 30 µM	2.26	29 µM	> 30 µM	–
N#Cc1c(N2CCCCC2)c2ccccc2n2c1nc1ccccc12	> 30 µM	3 µM	6.36	> 30 µM	> 30 µM	6.91	> 30 µM	> 30 µM	–
N#Cc1c(N2CCNCC2)c2ccccc2n2c1nc1ccccc12	8 µM	7 µM	0.53	9 µM	> 30 µM	2.22	> 30 µM	> 30 µM	–
N#Cc1c(N2CCNCC2)c2sc3ccccc3c2n2c1nc1ccccc12	5 µM	5 µM	1.08	4 µM	> 30 µM	3.44	5 µM	> 30 µM	–
N#Cc1c(N2CCCCC2)c2sc3cc(N4CCCCC4)ccc3c2n2c1nc1ccccc12	> 30 µM	> 30 µM	–	> 30 µM	> 30 µM	–	> 30 µM	> 30 µM	–
CC(C)CNc1ccc2c(c1)sc1c(NCC(C)C)c(C#N)c3nc4ccccc4n3c12	> 30 µM	> 30 µM	–	> 30 µM	8 µM	–	4 µM	> 30 µM	–
CN(C)CCCNc1ccc2c(c1)sc1cc(C#N)c3nc4ccccc4n3c12	2 µM	5 µM	1.03	4 µM	> 30 µM	2.91	5 µM	27 µM	–
N#Cc1c(N2CCNCC2)c2ccc(N3CCNCC3)cc2n2c1nc1ccccc12	2 µM	9 µM	-0.98	7 µM	> 30 µM	0.87	5 µM	> 30 µM	–
N#Cc1c(=O)c2sc3ccccc3c2n2c1[nH]c1ccccc12	> 30 µM	> 30 µM	3.76	> 30 µM	> 30 µM	2.95	> 30 µM	> 30 µM	–
N#Cc1cc2sc3cc(N4CCCCC4)ccc3c2n2c1nc1ccccc12	> 30 µM	> 30 µM	8.52	> 30 µM	> 30 µM	8.5	> 30 µM	> 30 µM	–

Compound	IC50 [1]	IC50 [2]	logD [3]	IC50 [4]	IC50 [5]	logD ([6]; read-out: logD)	IC50 [7]	IC50 [8]	logD [6]
CC(C)CNc1ccc2c(c1)sc1cc(C#N)c3nc4ccccc4n3c12	3 µM	> 30 µM	7.76	5 µM	12 µM	7.77	2 µM	> 30 µM	–
CC(C)CNc1ccc2c(NCC(C)C)c(C#N)c3nc4ccccc4n3c2c1	> 30 µM	> 30 µM	–	5 µM	19 µM	–	12 µM	> 30 µM	–
N#CC1C(=O)c2ccc(F)cc2-n2c1nc1ccccc12 (stereo not drawn)	> 30 µM	> 30 µM	3	> 30 µM	> 30 µM	2.46	> 30 µM	> 30 µM	–
N#Cc1c(Cl)c2sc3ccccc3c2n2c1nc1ccccc12	> 30 µM	> 30 µM	7.38	> 30 µM	> 30 µM	7.32	1 µM	> 30 µM	–
N#Cc1cc2sc3cc(N4CCNCC4)ccc3c2n2c1nc1ccccc12	4 µM	19 µM	0.84	2 µM	26 µM	2.75	5 µM	24 µM	–
N#Cc1c(=O)c2sc3cc(F)ccc3c2n2c1[nH]c1ccccc12	> 30 µM	> 30 µM	4.04	> 30 µM	> 30 µM	3.2	> 30 µM	> 30 µM	–
CN(C)CCCNc1c(C#N)c2nc3ccccc3n2c2c1sc1ccccc12	3 µM	4 µM	0.69	1 µM	23 µM	3.44	4 µM	10 µM	–
N#Cc1c(N2CCCCC2)c2ccc(N3CCCCC3)cc2n2c1nc1ccccc12	> 30 µM	> 30 µM	7.51	> 30 µM	> 30 µM	–	> 30 µM	> 30 µM	9.11
N#Cc1c(Cl)c2sc3cc(F)ccc3c2n2c1nc1ccccc12	> 30 µM	> 30 µM	4.04	> 30 µM	> 30 µM	3.2	> 30 µM	> 30 µM	–
N#CC1C(=O)c2ccccc2-n2c1nc1ccccc12 (stereo not drawn)	> 30 µM	> 30 µM	2.6	> 30 µM	> 30 µM	2.09	> 30 µM	> 30 µM	–
N#Cc1c(N2CCCCC2)c2sc3ccccc3c2n2c1nc1ccccc12	6 µM	> 30 µM	7.7	> 30 µM	> 30 µM	8.34	5 µM	> 30 µM	–
N#Cc1c(N2CCNCC2)c2sc3cc(N4CCNCC4)ccc3c2n2c1nc1ccccc12	4 µM	17 µM	-0.51	8 µM	> 30 µM	1.89	12 µM	> 30 µM	–
N#Cc1c(Cl)c2ccc(F)cc2n2c1nc1ccccc12	11 µM	> 30 µM	6.11	5 µM	> 30 µM	6.05	2 µM	> 30 µM	–
N#Cc1cc2sc3cc(F)ccc3c2n2c1nc1ccccc12	> 30 µM	> 30 µM	6.32	> 30 µM	> 30 µM	6.3	1 µM	> 30 µM	–
CC(C)CNc1c(C#N)c2nc3ccccc3n2c2c1sc1ccccc12	9 µM	> 30 µM	4.67	> 30 µM	> 30 µM	6.99	5 µM	> 30 µM	–
COc1cccc2c1C(=O)c1c(O)c3c(c(O)c1C2=O)C[C@@](O)(C(=O)CO)C[C@@H]3O[C@H]1C[C@H](N)[C@H](O)[C@H](C)O1 [DOXORUBICIN]	–	–	–	–	1.01 µM	–	0.08 µM	1.29 µM	–
